Patent publication EP0437336B1, “Biophosphoryl hydrazines and their use as pesticides” (priority 1990, dated 1991)
Converted amounts (≈) assume the structure as drawn. Like-named read-outs stand apart in the source and are kept apart here.

Columns and labels:
Two-Spotted Spider Mite = assay: Biological Method D: Foliar Insecticidal Activity Test, mite test; format: in vivo, Tetranychus urticae; settings: foliar spray, kill after twenty-four hours; for LC50: Tetranychus urticae, 24 h, read-out: TSM LC50; for all read-outs here: key: I = Inactive at Rate Tested
Procedure: (§1) Biological Method D: Foliar Insecticidal Activity Test
(§2) In evaluating the foliar insecticidal activity of the compounds of this invention against insects and mites, the following test procedures were employed.
(§3) Not all compounds were tested at each of the several concentrations stated above. Test concentrations of a compound were selected as those most likely to differentiate dose response of a particular compound toward a particular test insect.
(§4) Initial evaluations were made on one or more of the following pests:
For the mite test, infested bean (Phaseolus limensis var. Woods Prolific) leaf discs [3.18 cm (1.25") in diameter] containing about 50 mites were placed in a Petri dish lid on a moistened piece of cotton. The leaves were then sprayed to thorough wetness with the test solution using a rotating turntable, held for twenty-four hours and then the percentage killed was determined.
(§5) The mortalities obtained in this manner were plotted on logarithmic probability paper.
(§6) The rotating turntable consists of a fixed, continuously operating spray nozzle under which targets are rotated at a fixed speed and distance. If the target is a Petri dish (such as for the bean beetle, armyworm, mite, or aphid tests), the distance from the nozzle is 38.1 cm (15 inches). If the target is a Mason jar (such as for the boll weevil test), the distance from the nozzle is 17.8 cm (7 inches). The nozzle is located 8 inches from the rotating shaft. The targets on individual platforms revolve around the shaft at 1 revolution per 20 seconds but only a brief portion of this time occurs in the spray path. Targets pass only once under the nozzle and then are removed to drying hoods.
(§7) The nozzle used is a 1/4 JCO Spraying Systems (Wheaton, Illinois) air atomizing nozzle equipped with a No. 2850 fluid cap and a No. 70 air cap. At the 68.95 x 10³ Pa gauge (10 psig) air pressure used and with liquid siphon feed, 1.89 ℓ/hr [0.5 GPH (gallons per hour)] are delivered in a round spray pattern with a 21 degree spray angle. Targets are misted with spray droplets to the point that the droplets coalesce to form a uniform thin film insufficient to drown test organisms.

Green Peach Aphid = assay: Biological Method D: Foliar Insecticidal Activity Test, aphid test; format: in vivo, Myzus persicae; settings: foliar spray; kill after twenty-four hours; note: key: I = Inactive at Rate Tested
Procedure: as §1, §2, §3, §4
For the aphid test, infested broccoli (Brassica oleracea italica var. DiCicco) leaves containing about 50 aphids were placed in a Petri dish lid on a moistened piece of cotton. The leaves were then sprayed to thorough wetness with the test solution using a rotating turntable, held for twenty-four hours and then the percentage killed was determined.
as §5, §6, §7

[1] = test system: southern corn rootworm, Diabrotica undecimpunctata howardi; assay: Biological Method A: Corn Rootworm Screening Test (treated non-aggressive soil); settings: soil concentration giving 90% mortality, 10 days at 27°C
Mexican Bean Beetle = assay: Biological Method D: Foliar Insecticidal Activity Test, Mexican Bean Beetle test; format: in vivo, Epilachna varivestis; settings: Epilachna varivestis, foliar spray
Procedure: as §1, §2, §3, §4
(§8) For the Mexican Bean Beetle and Southern armyworm tests, individual lima bean (Phaseolus limeniss var. Woods' Prolific) leaves were placed on moistened pieces of filter paper in Petri dishes. The leaves were then sprayed with the test solution using a rotating turntable and allowed to dry. The dishes were then infested with 10 third instar larvae of either the Mexican Been Beetle or the Southern Armyworm. The dishes were then covered. Percent mortality was determined for each species and spray concentration at 48 and 96 hours after treatment.
as §5, §6, §7

Southern Armyworm = assay: Biological Method D: Foliar Insecticidal Activity Test, Southern Armyworm test; format: in vivo, Spodoptera eridania; settings: foliar spray; for AW 48 hrs LC50: 48 hours after treatment; for AW 96 hrs LC50: 96 hours after treatment; for all read-outs here: key: I = Inactive at Rate Tested
Procedure: as §1, §2, §3, §4, §8, §5, §6, §7

Boll Weevil = assay: Biological Method D: Foliar Insecticidal Activity Test, boll weevil test; format: in vivo, Anthonomous grandis; settings: spray into jar
Procedure: as §1, §2, §3, §4
For the boll weevil test, 10 adult weevils were placed in a 0.24 ℓ (0.5 pint) glass Mason jar containing a small cube of apple. The weevils were confined to the jar by fiberglass screen mesh secured by a screw-type rim cap. The jars were then sprayed with the test solution using a rotating turntable; directing the spray through the mesh into the jar. The percentage killed was determined after forty-eight and ninety six hours.
as §5, §6, §7

[2] = 48 hours after treatment, read-out: BB 48 hrs. LC50
[3] = 96 hours after treatment, read-out: BB 96 hrs LC50

CCOP(=S)(NNP(=S)(OCC(C)(C)C)OC(C)C)OCC (stereo not drawn) [Compound 68]
LC50 (Two-Spotted Spider Mite): 520 µg/mL (≈ 1320 µM)
GPA LC50 (Green Peach Aphid): I
primary nonagressive Method A crw LC90 [1]: 1.1 ppm
LC50 (Mexican Bean Beetle; [2]): 500 µg/mL (≈ 1270 µM)
LC50 (Mexican Bean Beetle; [3]): 150 µg/mL (≈ 382 µM)
AW 48 hrs LC50 (Southern Armyworm): I
AW 96 hrs LC50 (Southern Armyworm): I
BW 48 hrs LC50 (Boll Weevil): I
BW 96 hrs LC50 (Boll Weevil): I

CCOP(=S)(NNP(=S)(OCC)OCC(F)(F)C(F)(F)F)OCC (stereo not drawn) [Compound 78]
LC50 (Two-Spotted Spider Mite): 150 µg/mL (≈ 341 µM)
GPA LC50 (Green Peach Aphid): I
primary nonagressive Method A crw LC90 [1]: 1.1 ppm
LC50 (Mexican Bean Beetle; [2]): 360 µg/mL (≈ 818 µM)
LC50 (Mexican Bean Beetle; [3]): 150 µg/mL (≈ 341 µM)
AW 48 hrs LC50 (Southern Armyworm): I
AW 96 hrs LC50 (Southern Armyworm): I
BW 48 hrs LC50 (Boll Weevil): I
BW 96 hrs LC50 (Boll Weevil): I

CCCOP(=S)(NNP(=S)(OCC)OC(C)(C)C(F)(F)F)OCC (stereo not drawn) [Compound 69]
LC50 (Two-Spotted Spider Mite): 360 µg/mL (≈ 833 µM)
GPA LC50 (Green Peach Aphid): I
primary nonagressive Method A crw LC90 [1]: 1.1 ppm
LC50 (Mexican Bean Beetle; [2]): 500 µg/mL (≈ 1160 µM)
LC50 (Mexican Bean Beetle; [3]): 62 µg/mL (≈ 143 µM)
AW 48 hrs LC50 (Southern Armyworm): I
AW 96 hrs LC50 (Southern Armyworm): I
BW 48 hrs LC50 (Boll Weevil): I
BW 96 hrs LC50 (Boll Weevil): I

CCCCCOP(=S)(NNP(=S)(OCCC)OCCC)OCC (stereo not drawn) [Compound 79]
TSM LC50 (Two-Spotted Spider Mite): I
GPA LC50 (Green Peach Aphid): I
primary nonagressive Method A crw LC90 [1]: 1.1 ppm
LC50 (Mexican Bean Beetle; [2]): 380 µg/mL (≈ 935 µM)
LC50 (Mexican Bean Beetle; [3]): 62 µg/mL (≈ 153 µM)
AW 48 hrs LC50 (Southern Armyworm): I
AW 96 hrs LC50 (Southern Armyworm): I
BW 48 hrs LC50 (Boll Weevil): I
BW 96 hrs LC50 (Boll Weevil): I

CCCCCOP(=S)(NNP(=S)(OCC)OCC)OCC (stereo not drawn) [Compound 63]
TSM LC50 (Two-Spotted Spider Mite): I
GPA LC50 (Green Peach Aphid): I
primary nonagressive Method A crw LC90 [1]: 1.1 ppm
LC50 (Mexican Bean Beetle; [3]): 740 µg/mL (≈ 1960 µM)
AW 48 hrs LC50 (Southern Armyworm): I
AW 96 hrs LC50 (Southern Armyworm): I
BW 48 hrs LC50 (Boll Weevil): I
BW 96 hrs LC50 (Boll Weevil): 740 ppm

CCCOP(=S)(NNP(=S)(OCC)N1CCCCC1)OCCC (stereo not drawn) [Compound 64]
TSM LC50 (Two-Spotted Spider Mite): I
GPA LC50 (Green Peach Aphid): I
primary nonagressive Method A crw LC90 [1]: 8.6 ppm
LC50 (Mexican Bean Beetle; [2]): 740 µg/mL (≈ 1830 µM)
LC50 (Mexican Bean Beetle; [3]): 740 µg/mL (≈ 1830 µM)
AW 48 hrs LC50 (Southern Armyworm): I
AW 96 hrs LC50 (Southern Armyworm): I
BW 48 hrs LC50 (Boll Weevil): I
BW 96 hrs LC50 (Boll Weevil): I

CCOP(=S)(NNP(=S)(OCC)OC(C)C)OC(C)C (stereo not drawn) [Compound 67, reference compound]
LC50 (Two-Spotted Spider Mite): 150 µg/mL (≈ 412 µM)
GPA LC50 (Green Peach Aphid): I
primary nonagressive Method A crw LC90 [1]: 0.09 ppm
LC50 (Mexican Bean Beetle; [2]): 150 µg/mL (≈ 412 µM)
LC50 (Mexican Bean Beetle; [3]): 62 µg/mL (≈ 170 µM)
AW 48 hrs LC50 (Southern Armyworm): I
AW 96 hrs LC50 (Southern Armyworm): I
BW 48 hrs LC50 (Boll Weevil): I
BW 96 hrs LC50 (Boll Weevil): I

CCCCCCCCOP(=S)(NNP(=S)(OCC)OCC)OCC (stereo not drawn) [Compound 72]
TSM LC50 (Two-Spotted Spider Mite): I
GPA LC50 (Green Peach Aphid): I
primary nonagressive Method A crw LC90 [1]: 1.1 ppm
AW 48 hrs LC50 (Southern Armyworm): I
AW 96 hrs LC50 (Southern Armyworm): I
BW 48 hrs LC50 (Boll Weevil): I
BW 96 hrs LC50 (Boll Weevil): I
